Data taken from patent publication US5196410A, “Transdermal flux enhancing compositions” (priority 1991, dated 1993).
Values after ≈ are worked out from the molar mass of the structure shown. Structures can show the parent of a compound that is named as a salt. Where two headings read alike, the source gives them in different places.

What was measured:
[1] = format: in vitro ADME, porcine
Experimental: Samples were removed periodically from the receiver side of the diffusion cell, mixed with a Z0 scintillation cocktail (Scintisol, Isolabs, Inc., Akron, OH) and counted for several minutes in a liquid scintillation counter (Model Mark III-6881, Tracor Analytical, Elk Grove Village, IL). Following an initial lag time of about 6 hours, the amount of
salicylic acid appearing in the receiver side was linear with time for the duration of the experiment (routinely 24 to 48 hours). […] This value, when divided by the specific acitivity of salicyclic acid in the saturated solution (approximately 300 dpm/mg) and the area of exposed skin (0.2 cm^2), yielded the flux (mg/cm^2/ hr). Samples removed from the donor side at the beginning and end of the experiment contained, within error, the same amount of salicylic acid. Thus, constant concentration of the permeant was maintained on the donor side throughout the experiment.

[2] = Saturation concentration of drug in vehicle
[3] = cited from earlier work
[4] = Infrared spectra of fatty acid treated porcine stratum corneum; conditions: C-H antisymmetric stretching; stratum corneum treated with […] fatty acid in ethanol, 30% (w/w) water
Experimental: (§1) Stratum corneum sheets were prepared from porcine skin by trypsin treatment. Thus, full thickness porcine skin samples were dermatomed to 350 μm thickness and spread, stratum corneum side up, on filter paper saturated with 0.5% crude trypsin in phosphate buffered saline at pH 7.4 (Sorensen's buffer). After several hours at 37° C. the stratum corneum was peeled away, washed in soybean trypsin inhibitor, water and air dried. Samples were stored desiccated at room temperature until used. Prior to use, dry skin samples of known weight were incubated for two hours in an 0.15M solution of the appropriate fatty acid in ethanol, the samples were then washed for ten seconds in ethanol, spread on wire mesh, dried over a desiccant and the dry sample reweighed. The stratum corneum samples were then held for several days in a chamber at 22° C., 95% relative humidity, during which the stratum corneum samples equilibrated to a water content of 30% (w/w).
Infrared spectra were obtained with a Fourier Transform Infrared Spectrometer^4 (FTIR) equipped with a liquid nitrogen cooled mercury-cadmium telluride detector. In order to prevent water loss, hydrated samples were sealed between zinc sulfide windows while maintained at 22° C., 95% relative humidity. Sealed samples were placed in the spectrometer where an average of 127 scans were obtained in about six minutes for each of the fatty acid treatments. The digitized data were transferred to a computer (Apple IIe) for determination of frequency and bandwidth of the C--H antisymmetric stretching absorbance. Due to the digital nature of the FTIR instrument, absorbance and frequency data exist only in discrete increments. With the instrument used, the exact value of any frequency point could only be determined with a precision not greater than 2.7 cm^-1. The peak frequency was estimated with much greater precision, however, using a center of gravity algorithm for digitized data reported by Cameron et al., Applied Spectr., 36 245-250 (1982).

[5] = Differential scanning calorimetry of fatty acid treated porcine stratum corneum; conditions: stratum corneum treated with […] fatty acid in ethanol, 30% (w/w) water
Experimental: as §1
The differential scanning calorimeter^5 was used at a scan rate of 0.75° C./minute. Duplicate samples from each of the above FTIR experiments were combined for DSC measurements. Alternately, stratum corneum samples of known weight (about 20 mg) were treated with each fatty acid in the same manner described above. Treated samples were hydrated for several days at 95% R.H., 22° C. and reweighed.

## O=C(O)c1ccccc1O [Salicylic acid, salicylic acid]
[1]; salicylic acid in receiver, 32° C.
  initial lag time: about 6 hours
[1]; saturated salicylic acid in ethanol, no fatty acid (ethanol control), 32° C.
  Flux of Salicylic Acid: 1.31 mg/cm^2 /hr
[2]; ethanol, organic solvent or mixture
  solubility: 310 mg/mL (≈ 2240 mM)

## CCCCCCCCCCCCN1CCCCCC1=O [Azone, 1-dodecylazacycloheptan-2-one]
[3]; Stoughton, Arch. Derm.
  ability to enhance percutaneous penetration: ability to enhance percutaneous penetration
[3]; flurbiprofen in propylene glycol and other solvents
  enhancement of dermal penetration: enhance dermal penetration

## CCCCCCCC/C=C/CCCCCCCC(=O)O [Elaidic, elaidic acid]
[4]
  Peak IR Frequency: 2919.4 cm⁻¹
[5]
  DSC Tm (temperature of the transition maximum): 61.5 °C
[1]
  Flux of Salicylic Acid: 2.35 mg/cm^2 /hr

## COc1cc2nc(N3CCN(C(=O)C4COc5ccccc5O4)CC3)nc(N)c2cc1OC (stereo not drawn) [doxazosin mesylate]
[2]; 30% ethanol/acetate buffer, pH 5, organic solvent or mixture
  solubility: 8.95 mg/mL
